In US20210023029A1, “EDASALONEXENT DOSING REGIMEN FOR TREATING MUSCULAR DYSTROPHY” (Catabasis Pharmaceuticals, Inc., priority 2017, published 2021):
Like-named read-outs stand apart in the source and are kept apart here.

Key:
[1] = Edasalonexent dosing regimen pharmacokinetics in C57BL/6 mice (diet or oral gavage, LC/MS/MS); format: in vivo; settings: for AUC / Cmax / Tmax / AUC(0-t): C57BL/6, mouse; for AUC(0-t): read-out: AUC0-24 h, day 3 (±SE)
Experimental: C57BL/6 mice were administered edasalonexent in their diet and/or by oral gavage. Pharmacokinetic (PK) modeling was used to identify suitable dosing amounts and timing in relation to the doses of 67 mg/kg/day and 100 mg/kg/day that have been tested in edasalonexent human clinical trials. Specifically, mice were administered 1.5% edasalonexent in their diet, 450 mg/kg/day delivered orally as single daily dose, 450 mg/kg/day delivered orally as three equally divided doses, or 600 mg/kg/day delivered orally as two 150 mg/kg/doses and one 300 mg/kg/dose. For dosing regimens with three daily doses, doses were delivered at 7:00 am, noon and 5:00 pm.
The dosing regimens for each group are depicted in TABLE 1. Each group included 12 mice.
For animals administered edasalonexent in their diet, edasalonexent concentration was measured by LC/MS/MS every 4 hours for 24 hours, beginning on the seventh day of dosing. For animals administered edasalonexent orally, edasalonexent concentration was measured by LC/MS/MS at 0.25, 0.5, 1, 2, 4, 6 and 24 hours after dosing, beginning on the third day of dosing.

[2] = system: mdx mice; assay: Quadriceps muscle inflammation and fibrosis in young mdx mice treated four weeks (H&E and picrosirius red staining); format: in vivo
Experimental: Young mdx mice were treated for four weeks with varying dosing regimens of edasalonexent. The mdx mouse is a useful and generally accepted animal model for studying Duchenne muscular dystrophy (DMD) (Mann et al. (2001) PROC. NATL. ACAD. SCI. 98(1):42-7). mdx mice are deficient in expression of full-length dystrophin due to a genetic mutation within the dystrophin gene.
Mice were administered edasalonexent in their diet, and/or by oral gavage. Specifically, mice were administered 1% edasalonexent in their diet, 450 mg/kg/day delivered orally as single daily dose, 450 mg/kg/day delivered orally as three equally divided doses, and/or 600 mg/kg/day delivered orally as two 150 mg/kg/doses and one 300 mg/kg/dose. For dosing regimens with three daily doses, doses were delivered at 7:00 am, noon and 5:00 pm.
The dosing regimens for each treatment group are depicted in TABLE 4. Each treatment group included 10-11 mice.
Animals were treated for four weeks, sacrificed, and tissues were collected for histological analysis. For assessment of inflammation and fibrosis, quadriceps muscles were processed for hematoxylin and eosin (H&E) and picrosirius red (collagen) histochemical staining. From each animal, 2-4 complete transverse sections were digitally analyzed using ImageJ, with the hematoxylin-stained nuclear area determined as a measure of inflammatory infiltration, and the picrosirius red-stained area determined as a measure of fibrosis.

[3] = system: boys with DMD; assay: MoveDMD trial: safety and tolerability; format: in vivo, human
Experimental: The MoveDMD trial (see FIG. 10) was designed to evaluate efficacy, safety/tolerability, pharmacokinetics (PK), pharmacodynamics (PD), and dose response of edasalonexent. The first phase portion of the MoveDMD trial was a 1-week study to evaluate the safety, PK, and PD at 33 and 67 mg/kg/day, given in 2 divided doses, and 100 mg/kg/day given in 3 divided doses. The second phase and the open-label extension (OLE) portions of the MoveDMD trial enrolled boys ages 4 through 7 with DMD. Phase 2 was a 12-week placebo-controlled study with two cohorts given 33 mg/kg twice daily (BID; 67 mg/kg/day; n=10) or 33 mg/kg three times daily (TID; 100 mg/kg/day; n=10), and a placebo cohort (n=10). Patients in the OLE continued with either dose regimen of edasalonexent.

[4] = gastrocnemius, 1.5% edasalonexent in diet (group 1)
[5] = group 2, 1% edasalonexent in diet
[6] = group 4, oral QD 450 mg/kg/dose
[7] = group 7, oral TID 150/150/300 mg/kg/dose = 600 mg/kg/day

**Q.** Which results are given for `CC/C=C\C/C=C\C/C=C\C/C=C\C/C=C\C/C=C\CCC(=O)NCCNC(=O)c1ccccc1O` [edasalonexent, N-(2-[(4Z,7Z,10Z,13Z,16Z,19Z)-docosa-4,7,10,13,16,19-hexaenamido]ethyl)-2-hydroxybenzamide]?
**A.** AUC ([1]; po, 1.5 % in diet, gastrocnemius, 1.5% edasalonexent in diet (group 1)): 7620 ng·h/mL; Cmax ([1]; po, 1.5 % in diet, gastrocnemius, 1.5% edasalonexent in diet (group 1), read-out: Cmax): 532 ng/mL; AUC ([1]; po, 1.5 % in diet, plasma, 1.5% edasalonexent in diet (group 1)): 524 ng·h/mL; Cmax ([1]; po, 1.5 % in diet, plasma, 1.5% edasalonexent in diet (group 1), read-out: Cmax): 44.6 ng/mL; Tmax ([1]; plasma, group 2, oral QD 450 mg/kg/dose, day 3): 30 min; Cmax ([1]; plasma, group 2, oral QD 450 mg/kg/dose, day 3, read-out: Cmax (±SE)): 604 ± 83.3 ng/mL; AUC(0-t) ([1]; plasma, group 2, oral QD 450 mg/kg/dose): 1320 ng·h/mL; Tmax ([1]; plasma, group 3, oral TID 150 mg/kg/dose = 450 mg/kg/day, day 3): 30 min; Cmax ([1]; plasma, group 3, oral TID 150 mg/kg/dose = 450 mg/kg/day, day 3, read-out: Cmax (±SE)): 452 ± 47.6 ng/mL; AUC(0-t) ([1]; plasma, group 3, oral TID 150 mg/kg/dose = 450 mg/kg/day): 1360 ± 211 ng·h/mL; Tmax ([1]; plasma, group 4, oral TID 150/150/300 mg/kg/dose = 600 mg/kg/day, day 3): 30 min; Cmax ([1]; plasma, group 4, oral TID 150/150/300 mg/kg/dose = 600 mg/kg/day, day 3, read-out: Cmax (±SE)): 278 ± 46.3 ng/mL; AUC(0-t) ([1]; plasma, group 4, oral TID 150/150/300 mg/kg/dose = 600 mg/kg/day): 2270 ± 587 ng·h/mL; Cmean [1, 4]: 332.8 ng/mL; Cmin [1, 4]: 149.4 ng/mL; AUC of single daily 450 mg/kg dose relative to edasalonexent in diet ([1]; group 2 (450 mg/kg QD) versus group 1 (1.5% in diet), plasma): ~2.5 fold; Cmin ([1]; plasma, 1.5% edasalonexent in diet (group 1)): 10.7 ng/mL; Cmean ([1]; plasma, 1.5% edasalonexent in diet (group 1), from seventh day of dosing): 22.4 ng/mL; quadriceps muscle fibrosis (picrosirius red-stained area) [2, 5]: reduced; quadriceps muscle inflammation (hematoxylin-stained nuclear area) [2, 5]: reduced; quadriceps muscle fibrosis (picrosirius red-stained area) [2, 6]: did not cause a significant reduction; quadriceps muscle inflammation (hematoxylin-stained nuclear area) [2, 6]: did not cause a significant reduction; quadriceps muscle fibrosis (picrosirius red-stained area) [2, 7]: further drove efficacy; quadriceps muscle inflammation (hematoxylin-stained nuclear area) [2, 7]: further drove efficacy; nature of the majority of adverse events ([3]; 100 mg/kg, study subjects): mild in nature and mostly gastrointestinal; safety findings ([3]; 100 mg/kg, study subjects): no adverse findings; tolerability ([3]; 100 mg/kg, study subjects): well tolerated; trends in hematology, chemistry, renal or adrenal function, calcium or phosphate levels ([3]; 100 mg/kg, study subjects): No adverse trends; side effects compared to the 133 mg/kg/day dosing regimen ([3]; 100 mg/kg/day versus 133 mg/kg/day (33/33/67 mg/kg)): fewer side effects; heart rate ([3]; study subjects over the 60 week study period): decreased toward age normative values; height and weight ([3]; study subjects over the treatment period, CDC Growth Chart percentiles): age appropriate increases
